# In article PMC6856805, “Environmental Risk Assessment for the Active Pharmaceutical Ingredient Mycophenolic Acid in European Surface Waters” (Environmental Toxicology and Chemistry, 2019):
# Like-named read-outs stand apart in the source and are kept apart here.
# Key:
# [1] = n-octanol/water distribution coefficient (log DOW), shake-flask method; type: physicochemical
# Excerpt: Syntex derived many basic physicochemical properties for both MPM and MPA in the early 1990s. The results for MPA are mostly given in the present study.
# [2] = Photodegradation in buffered aqueous solutions under natural sunlight; type: physicochemical
# Experimental: In contrast, Franquet‐Griell et al. (2017a) reported MPA k photo values of 0.0284 min^–1 for UV‐C irradiation and 0.004 min^–1 in a Solar Box artificial sunlight reactor. […] Giebułtowicz and Nałęcz‐Jawecki (2016) presented a UV‐visual light spectrum of MPA in their Supporting Information with a λmax at 215 nm and 2 sequentially lower peaks at 248 and 297 nm, confirming UV‐C photosensitivity.
# The photodegradation of MPA in buffered aqueous solutions at pH 5, 7 and 9 under natural sunlight was determined by Syntex, 'closely following the US FDA guideline' (Nicholson 1994)). MPA was used in solutions of 3.12×10^–5 M (= 10 mg/L); the pH 5 solution was buffered with 0.1 M sodium acetate, the pH 7 solution with 0.1 M monobasic sodium phosphate and the pH 9 solution with 0.1 M sodium borate buffer. As actinometers (reference photodegradants) p-nitroanisole at 1.00×10^–5 M was used, with 4.96×10^–3 M pyridine for pH 5, with 6.20×10^–3 M pyridine for pH 7 and with 9.93×10^–3 M pyridine for pH 9. In each of the seasonal studies, hermetically closed quartz tubes with either one of the MPA solutions or the corresponding actinometer solutions were exposed to natural sunlight in triplicate. Single control tubes containing either MPA solution or actinometer solution, both at different pHs, were wrapped in aluminium foil and covered in black plastic and exposed in parallel. The tubes were set up in Palo Alto, Ca, USA at 37° 25' N, in parallel on a board painted black, which was exposed on a stand pointing due […] at an angle of 30°. Data for the four seasonal experiments, with date, time of initiation and end, sampling intervals, weather, cloud cover and temperature, are given in the report. At each of several equivalent timepoints, one set of tubes was removed from sunlight, analysed by HPLC and compared with the respective dark control. The substance loss of p-nitroanisole, with known quantum yield, in the […] served to calibrate the loss of MPA in the test tubes and determine the photolytic rate constants kphoto and half-lives for MPA at different pH levels and insolations over the seasons.
# [3] = tested on: humans; experiment: Derivation of acceptable daily exposure (ADE); parameters: species or system human
# Experimental: Similarly, potential risk for humans from secondary poisoning is assessed by using the acceptable daily exposure (ADE) value for MPA (T. Pfister, unpublished data), which considers toxicological data as well as human experience and covers all routes of uptake, including sensitive subpopulations, over 365 d/annum, with the combined worst‐case uptake through drinking water and fish. No removal of MPA in drinking water production is assumed, but a default intake of 2 L water and 115 g fish/person and day is assumed (European Commission 2011; Murray‐Smith et al. 2012). This combined uptake is then compared with the ADE.
# The ADE was derived based on the available nonclinical and clinical data, with the critical effects identified as 1) immunosuppression and secondary effects thereof and 2) teratogenicity; in addition, the relevance of positive results in genotoxicity tests was assessed (T. Pfister, unpublished data). Based on the NOAEL of 2 mg/kg body weight/d in the 12‐mo oral toxicity study in the rat, an ADE was derived by multiplying this NOAEL by a default body weight of 60 kg for humans and dividing by adjustment factors, namely, 6.2 for extrapolation from rats to humans, 10 for variability between individuals, 1 for study duration of 1 yr for rodents, 5 for severity of systemic toxicity (hematopoiesis, immunotoxicity), and 3 for use of an established NOAEL instead of an NOEL; this derivation results in a first ADE of 0.1 mg MPM/60‐kg person/d. […] The weak clastogenic potential observed at higher doses was considered to be irrelevant at these exposure levels. Because the first ADE was lower than, and therefore also protective of, the second, 0.1 mg MPM/60‐kg person/d was selected as the ADE. Stoichiometrically, this ADE for MPM corresponds to 0.0739 mg MPA/d, which was rounded to 0.075 mg or 75 µg MPA/d. The MTDI for an otter was derived by normalizing the ADE for a 60‐kg human to the otter with a default body mass of 10 kg, resulting in an MTDI of 0.0125 mg or 12.5 µg MPA/10‐kg otter/d.
# [4] = parameters: method as in Franquet‐Griell et al. (2017a); conditions: ref Franquet‐Griell et al. (2017a), cited from earlier work
# [5] = parameters: method as in FASS 2018; conditions: OECD 209; ref FASS 2018; cited from earlier work
# [6] = tested on: Artemia salina; parameters: method as in earlier work; conditions: non‐GLP; ref Ďuračková et al. 1977; cited from earlier work
# [7] = tested on: Wistar rat embryos, murine embryonic stem cells, and mouse fibroblasts; parameters: method as in Eckardt and Stahlmann 2010; conditions: mammalian systems; ref Eckardt and Stahlmann 2010; cited from earlier work
# [8] = tested on: inosine-5'-monophosphate dehydrogenase (IMPDH); parameters: method as in Wishart et al. 2018; Royal Pharmaceutical Society 2018; conditions: ref Wishart et al. 2018; Royal Pharmaceutical Society 2018; cited from earlier work
compound,measurement,setting,value
"COc1c(C)c2c(c(O)c1CC=C(C)CCC(=O)O)C(=O)OC2 [MPA, 6‐(1,3‐dihydro‐4‐hydroxy‐6‐methoxy‐7‐methyl‐3‐oxo‐5‐isobenzofuranyl)‐4‐methyl‐4‐hexenoic acid]",logD,"[1]; pH 5, pH 5, read-out: Log D OW",2.28
same,logD,"[1]; pH 5, pH 5 to 9, read-out: log D OW values",≤ 2.28
same,logD,"[1]; pH 7, pH 7, read-out: Log D OW",0.48
same,logD,"[1]; pH 9, pH 9, read-out: Log D OW",≤ -1.54
same,k photo,"[2]; pH 5, summer",0.0059 min^–1
same,k photo,"[2]; pH 5, winter",0.0017 min^–1
same,k photo,"[2]; pH 7, summer",0.018 min^–1
same,k photo,"[2]; pH 7, winter",0.0049 min^–1
same,k photo,"[2]; pH 9, summer",0.031 min^–1
same,k photo,"[2]; pH 9, winter",0.0087 min^–1
same,"ADE, rounded",[3],75 µg MPA/d
same,"ADE, stoichiometric",[3],0.0739 mg MPA/d
same,"ADE, rounded",[3]; MPA/d,0.075 mg
same,biodegradation rate constant k biodeg,[4]; fifth cycle,0.006 min^–1
same,biodegradation rate constant k biodeg,[4]; first cycle,0.0017 min^–1
same,"3‐h EC50, respiration inhibition",[5],2213 mg/L
same,"EC10, respiration inhibition",[5],69 mg/L
same,16‐h LC50,[6],98.4 mg MPA/L
same,"concentrations causing proliferation, cellular and developmental toxicity",[7],≥ 31 µg/L
same,type of inhibition,[8],"reversible, potent, and noncompetitive inhibitor"
